{"source": "patent US8697629B2", "about": "“Modulation of intracellular signaling” (Angstrom Pharmaceuticals, Inc., priority 2010, dated 2014)", "format_in_all_cases": "cell-based", "key": {"SKOV3 cells [1]": {"test_system": "SKOV3 cells", "assay": "Boyden chamber chemotaxis/migration of SKOV3 cells", "protocol": "A2780 (FIG. 10a) and SKOV3 (FIG. 10b) cells were incubated with the indicated concentrations of Å6 peptide for 30 min at 37° C. Aliquots representing 6,000 cells were placed on quadruplicate, CnI-coated filters (8 μm pores) in Boyden chambers and the cells allowed to migrate overnight in response to 10 ng/ml VEGF in NIH3T3-conditioned media containing the indicated concentrations of Å6. Upon completion of migration, the apical surfaces of the membranes were wiped clean and the migrating cells on the basal surface were stained with Geimsa stain and the cells present in representative fields of the membranes counted. Data represent the averages+/−standard deviations obtained from the replicate filters. […] This provides further confirmation that CD44 is the target for the Å6 peptide.\nSKOV3 cells are harvested by trypsinization and washed once with RPMI−0.5% BSA. Next, the cells are re-suspended in RPMI+0.5% BSA @ 6E4/mL (6000 cells/100 μL). The peptide is pre-treated with 500 μL of cells added to 500 μL peptide NASAPPEE (2× concentration, final conc. at 100, 10, 1, 0.1, 0.01, 0.001 uM) and the mixture incubated 30 minutes at 37° C., under 5% CO2. The Boyden chamber is assembled by: Placing in the bottom chambers: 220 μL of serum/BSA free DMEM or NIH3T3CM+10 ng/ml VEGF or NIH3T3CM+10 ng/ml VEGF+peptide. Place 8 μm filters on the top of the bottom chambers. The 8 μm filters are coated with 1 mg/ml collagen I at 4° C. overnight, washed with PBS twice, air dry before use. Add 200 μL of cells with or without peptide pretreatment to the top of Boyden chamber. Note that the peptide is in both top and bottom chambers. Cells migrate overnight at 37° C., under 5% CO2 in incubator. Next, Boyden chambers are disassembled the and filters collected. The cells on the filters after collection are treated with −20° C. methanol for 3 minutes at room temperature and stained with 30% Geimsa for 7 minutes at room temperature, and washed with water twice. The filters are mounted on slides, air dried and the cells counted.\nCell numbers were obtained by counting the cells in four fields of filters using a 40× objective. The cells migrating into the bottom chambers were also counted as follows: a) 200 μL fluid in the bottom chamber was transferred to a well of 96-well plate; b) The plate was centrifuged at 1200 rpm for 5 minutes; c) 180 μL of supernatant was removed; d) The cell pellet was resuspended with the remaining 20 μL fluid and the cells counted using a hemocytometer. […] This compares favorably to the Å6 peptide which is effective between 5 μM and 100 nM."}, "CD44": {"molecular_target": "T1, CD44 (Homo sapiens, UniProt P16070)", "T1 construct": "endogenous in cells; host or cells: SKOV3 cells", "T1 sequence (P16070 21-742)": "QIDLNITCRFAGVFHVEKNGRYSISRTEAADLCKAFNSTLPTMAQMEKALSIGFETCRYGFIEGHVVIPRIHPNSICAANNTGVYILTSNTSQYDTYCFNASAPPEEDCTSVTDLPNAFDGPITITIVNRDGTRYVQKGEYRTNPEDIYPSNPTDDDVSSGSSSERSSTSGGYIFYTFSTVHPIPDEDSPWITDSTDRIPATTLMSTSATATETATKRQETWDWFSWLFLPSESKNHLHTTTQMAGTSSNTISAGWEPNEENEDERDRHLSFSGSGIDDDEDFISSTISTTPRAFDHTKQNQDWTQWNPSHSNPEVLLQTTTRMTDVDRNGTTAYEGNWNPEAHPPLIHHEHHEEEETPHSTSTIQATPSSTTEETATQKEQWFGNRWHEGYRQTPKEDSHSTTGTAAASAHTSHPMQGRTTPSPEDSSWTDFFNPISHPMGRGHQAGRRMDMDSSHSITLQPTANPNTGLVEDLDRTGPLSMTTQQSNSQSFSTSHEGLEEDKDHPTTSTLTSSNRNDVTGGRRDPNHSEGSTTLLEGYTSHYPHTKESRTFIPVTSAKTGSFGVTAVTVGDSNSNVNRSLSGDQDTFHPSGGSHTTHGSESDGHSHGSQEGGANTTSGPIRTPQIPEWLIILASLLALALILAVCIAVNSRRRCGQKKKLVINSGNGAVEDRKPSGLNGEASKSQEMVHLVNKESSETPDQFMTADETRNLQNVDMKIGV", "assay": "FACs analysis of anti-CD44 (DF1485) binding to SKOV3 cells in the presence of Å6", "settings": "pre-incubation with Å6 10 or 30 min on ice", "protocol": "In FIG. 4 SKOV3 cells were detached from their culture flasks by brief trypsinization, washed twice with DPBS and incubated on ice with the indicated concentrations of Å6 for 10 min (exp. 1) or 30 min (exp. 2). Anti-CD44 (DF1485; Santa Cruz Biotech.) or its isotype control were then added to final concentrations of 1 μg/ml (exp. 1) or 1 and 0.5 μg/ml (exp. 2) and the cells incubated for 1 hr on ice. The cells were washed once and incubated with FITC-conjugated donkey anti-mouse IgG (H+L) for 30 minutes on ice and then subjected to FACS analysis with a Beckman Coulter Epics XL-MCL cytofluorimeter. Data analysis was performed using the Coulter Epics software. Note: Data are presented as mean fluorescence intensities (MnI) obtained with the MnI of the negative control in each experiment adjusted to <0.5 during data collection. […] Similar CD44 expression in ovarian cancer lines using different anti-CD44 antibodies is assessed in FIG. 5, for which the MnI values are summarized in FIG. 6."}, "SKOV3 cells [2]": {"test_system": "SKOV3 cells", "assay": "Adhesion of SKOV3 cells to hyaluronic acid", "settings": "immobilized HA; 1 or 10 uM Å6; 20 ng/ml IM7", "protocol": "In FIG. 11 SKOV3 cells were cultured overnight with or without 10 μM Å6 or 100 ng/ml PMA. The cells were then detached, washed and loaded with 20 μg/ml CFDA-SE for 30 min at 37° C. After washing, the cells were resuspended in PBS containing 10% FCS and triplicate aliquots representing 100,000 cells incubated for 30 min at room temperature with no additions, 1 or 10 uM Å6 or with 20 ng/ml IM7, a blocking anti-CD44 rat monoclonal antibody. The cells were then placed into microtiter wells that had been coated with 50 μL of 1 mg/mL HA overnight and blocked for 30 min with 10% FCS. The cells were allowed to adhere at room temperature for 30 minutes after which, the wells were decanted and washed 3 times. The fluorescence in each well was assessed (excit./emiss.: 460/536 nm) and the mean fluorescence values (+/standard deviation) of the triplicate determinations calculated."}}}
{"substance": "acetyl-Lys-Pro-Ser-Ser-Pro-Pro-Glu-Glu-NH2 (Ac-KPSSPPEE-NH2) [Å6]", "values": [{"measurement": "SKOV3 migration", "setting": "SKOV3 cells [1]; 10 ng/ml VEGF in NIH3T3-conditioned media, overnight", "result": "strong inhibition"}, {"measurement": "cell migration inhibition, lower end of effective concentration range", "setting": "SKOV3 cells [1]; SKOV3", "result": 100, "unit": "nM"}, {"measurement": "cell migration inhibition, upper end of effective concentration range", "setting": "SKOV3 cells [1]; SKOV3", "result": 5, "unit": "µM"}, {"measurement": "binding of DF1485 anti-CD44 to SKOV3 cells (MnI)", "setting": "CD44", "result": "inhibits the binding of DF1485 anti-CD44 to SKOV3 cells"}, {"measurement": "SKOV3 binding to HA", "setting": "SKOV3 cells [2]", "result": "enhanced"}]}
